In patent publication US20210087217A1, “NUCLEOTIDE HEMI-SULFATE SALT FOR THE TREATMENT OF HEPATITIS C VIRUS” (Atea Pharmaceuticals, Inc., priority 2017, published 2021):
“Also recorded” adds a separate entry of the source. Where a name gives a salt, the structure may show the parent alone. Read-outs that look alike come from different tables or passages of the source.

Test: Storage of Compound 1 forms and amorphous salts at 25° C./60% RH for 14 days (HPLC, XRPD, observation)
Settings: for Physical/chemical stability and appearance on storage: 25° C./60% RH, 14 days
Description: This initial characterization was followed by storage at 25° C./60% relative humidity (RH) for 14 days with analysis by […] and XRPD after 7 and 14 days. FIG. 4A is the XRPD after 14 days at 25° C./60% (RH).
The samples were then frozen with the solvent removed by lyophilization.
The samples were then subjected to storage at 25° C./60% relative humidity (RH) for 14 days with analysis by HPLC and XRPD after 7 (FIG. 4B) and 14 days (FIG. 5A).

| SMILES | Physical/chemical stability and appearance on storage | Hygroscopicity (listed as HCl salt) | HPLC purity (0 days at 25° C./60% RH) | Observation (0 days at 25° C./60% RH) | HPLC purity (7 days at 25° C./60% RH) | Observation (7 days at 25° C./60% RH) | HPLC purity (14 days at 25° C./60% RH) | Observation (14 days at 25° C./60% RH) | Hygroscopicity |
| --- | --- | --- | --- | --- | --- | --- | --- | --- | --- |
| CNc1nc(N)nc2c1ncn2[C@@H]1O[C@H](CO[P@@](=O)(N[C@@H](C)C(=O)OC(C)C)Oc2ccccc2)[C@@H](O)[C@@]1(C)F [Compound 3, mono-sulfate salt of isopropyl((S)-(((2R,3R,4R,5R)-5-(2-amino-6-(methylamino)-9H-purin-9-yl)-4-fluoro-3-hydroxy-4-methyltetrahydrofuran-2-yl)methoxy)(phenoxy)phosphoryl)-L-alaninate] | unstable; also recorded: not physically stable |  |  |  |  |  |  |  |  |
| CNc1nc(N)nc2c1ncn2[C@@H]1O[C@H](CO[P@@](=O)(N[C@@H](C)C(=O)OC(C)C)Oc2ccccc2)[C@@H](O)[C@@]1(C)F [Compound 5] |  | more hydroscopic than the hemisulfate salt |  |  |  |  |  |  |  |
| CNc1nc(N)nc2c1ncn2[C@@H]1O[C@H](CO[P@@](=O)(N[C@@H](C)C(=O)OC(C)C)Oc2ccccc2)[C@@H](O)[C@@]1(C)F [Sample 1-1] | stable |  | 98.6 | White solid | 98.7 | White solid | 98.5 | White solid |  |
| CNc1nc(N)nc2c1ncn2[C@@H]1O[C@H](CO[P@@](=O)(N[C@@H](C)C(=O)OC(C)C)Oc2ccccc2)[C@@H](O)[C@@]1(C)F [Sample 1-2] | stable |  | 99.1 | White solid | 99.2 | White solid | 99.0 | White solid |  |
| CNc1nc(N)nc2c1ncn2[C@@H]1O[C@H](CO[P@@](=O)(N[C@@H](C)C(=O)OC(C)C)Oc2ccccc2)[C@@H](O)[C@@]1(C)F [Sample 1-3] |  |  | 99.7 | White solid | 99.6 | White solid | 99.4 | White solid |  |
| CNc1nc(N)nc2c1ncn2C1OC(COP(=O)(NC(C)C(=O)OC(C)C)Oc2ccccc2)C(O)C1(C)F.Cl (stereo not shown) [Sample 1-4] | physically and chemically stable |  | 98.7 | White solid | 98.8 | White solid | 98.6 | White solid | hygroscopic |
| CNc1nc(N)nc2c1ncn2C1OC(COP(=O)(NC(C)C(=O)OC(C)C)Oc2ccccc2)C(O)C1(C)F.O=S(=O)(O)O (stereo not shown) [Sample 1-5] | physically unstable |  | 98.4 | White solid | 55.7 | Sticky white |  | Sticky gum |  |
| CNc1nc(N)nc2c1ncn2C1OC(COP(=O)(NC(C)C(=O)OC(C)C)Oc2ccccc2)C(O)C1(C)F.CNc1nc(N)nc2c1ncn2C1OC(COP(=O)(NC(C)C(=O)OC(C)C)Oc2ccccc2)C(O)C1(C)F.O=S(=O)(O)O (stereo not shown) [Sample 1-9] | physically and chemically stable |  | 98.7 | White solid | 98.1 | White solid | 96.4 | White solid |  |
